Laboratory results from patent publication EP4806899A1, “FUSED RING DERIVATIVE, PREPARATION METHOD THEREFOR AND USE THEREOF IN MEDICINE” (Shanghai Qilu Pharmaceutical Research and Development …, priority 2023, dated 2025).
Where “and” joins values, the source holds several entries; their conditions need not be identical. Identical values can stand only once.

Legend:
human CYP11B1 enzyme = target: T1, human CYP11B1 enzyme (Homo sapiens, UniProt P15538); test: Enzyme inhibition activity assay in G402 cells stably expressing human CYP11B1 (cortisol production from 11-DC, LC/MS); type: cell-based; details: 1 µM 11-DC, 16 hours, cortisol detected
T1 construct: the ORF of human CYP11B1 or CYP11B2 were transfected into G402 cells; expressed in transfected cells
T1 sequence (P15538 25-503): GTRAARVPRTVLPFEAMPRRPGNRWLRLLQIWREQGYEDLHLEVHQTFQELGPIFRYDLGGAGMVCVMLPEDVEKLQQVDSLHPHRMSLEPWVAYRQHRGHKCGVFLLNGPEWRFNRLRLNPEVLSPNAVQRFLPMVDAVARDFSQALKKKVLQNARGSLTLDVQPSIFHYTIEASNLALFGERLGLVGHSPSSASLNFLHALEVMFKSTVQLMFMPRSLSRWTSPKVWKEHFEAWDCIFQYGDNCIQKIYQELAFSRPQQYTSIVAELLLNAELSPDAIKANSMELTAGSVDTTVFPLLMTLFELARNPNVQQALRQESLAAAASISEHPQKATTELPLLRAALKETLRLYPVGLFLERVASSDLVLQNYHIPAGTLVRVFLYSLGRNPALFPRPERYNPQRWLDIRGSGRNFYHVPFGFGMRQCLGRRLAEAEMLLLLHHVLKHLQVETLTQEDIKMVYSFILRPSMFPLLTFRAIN
From the text: (§1) G402 cells (ATCC, CRL 1440) are epithelioid cells isolated from the kidney of a patient with renal failure and are a type of leiomyoblastoma. For the screening of highly specific CYP11B2 inhibitors, we specifically used G402 cell lines stably expressing human CYP11B2 enzyme or human CYP11B1 enzyme for experimental development.
(§2) Construction of Stably Transfected Cell Lines: Expression plasmids containing suitable promoters, suitable drug resistance markers, and the ORF of human CYP11B1 or CYP11B2 were transfected into G402 cells using standard techniques. The cells were then screened using the specific puromycin resistance marker. Monoclonal cells stably expressing human CYP11B2 were selected for expansion, and 11-deoxycorticosterone (11-DOC) was used as the specific substrate to evaluate enzyme activity based on aldosterone production. Monoclonal cells stably expressing human CYP11B1 were selected for expansion, and 11-deoxycortisol (11-DC) was used as the specific substrate, with cortisol production as the detection target for specific enzyme activity evaluation. The G402 cell lines stably expressing CYP11B1/CYP11B2 were cultured at 37 °C, 5% CO2, 95% air in complete medium (McCoy's 5A + 10% FBS + 1% PS + 0.5 µg/mL puromycin).
(§3) Enzyme Inhibition Activity Assay: CYP11B1 G402/CYP11B2 G402 cells were spread out flatly in cell culture plates. After 24 hours, the medium was changed to an enzyme testing system (DMEM/F12 + 2.5% charcoal-stripped FCS). Small molecule inhibitors at various concentrations were added. After 1 hour, appropriate concentrations of specific substrates (1 µM 11-DOC / 1 µM 11-DC) were added and co-incubated with the cells for 16 hours. Cells were then collected, and specific products were detected using LC/MS methods with an AB SCIEX TRIPLE QUAD 5500+, CTO-40S instrument (CYP11B2 enzyme detecting aldosterone; CYP11B1 enzyme detecting cortisol).
(§4) The IC50 values of the compounds were determined based on the G402 testing system. The dose-dependent inhibition of enzyme activity was calculated by plotting the added inhibitor concentration (x-axis) against the percentage of product inhibitory activity relative to the control group (y-axis) based on product formation at various compound concentrations. The following data were then fitted using the least squares method with XLfit 5.5.0 for a four-parameter logistic curve fit: [formula] • Y-axis: Percentage of product inhibitory activity relative to the control group; • logIC50: IC50 was determined using XLFit.
(§5) The maximum enzyme activity corresponds to the amount of control product steroid/aldosterone in the absence of inhibitor, set as 100%. The minimum enzyme activity corresponds to the amount of reference control product steroid/aldosterone in the presence of inhibitor. Table 3 Inhibitory Activity of the Compounds of the Present Disclosure on CYP11B2 and CYP11B1

[1] = Pharmacokinetic determination in mice after gavage administration (P.O.); type: in vivo; details: male, CD-1, mouse, po, 10 mg/kg, plasma; for AUC(0-t): read-out: AUC0-24
Description: Mice and rats were used as test animals to study the pharmacokinetic behavior of the compounds of the present disclosure in plasma following gavage administration (P.O.). Plasma samples were collected at specific time points, compound concentrations in plasma were detected by LC-MS/MS, and pharmacokinetic parameters were calculated to evaluate the pharmacokinetics.
• Mice, CD-1, male, Zhejiang Vital River Laboratory Animal Technology Co., Ltd. • Rats, Sprague-Dawley, male, Zhejiang Vital River Laboratory Animal Technology Co., Ltd., Shanghai Jihui Experimental Animal Breeding Co., Ltd.
After administration to mice and rats, venous blood samples of 0.03 mL and 0.2 mL, respectively, were collected at 0.0833 (IV), 0.25, 0.5, 1, 2, 4, 8, and 24 hours and placed in EDTA-K2 test tubes. Plasma was separated by centrifugation at 4 °C, 4000 g for 5 minutes and stored at -80 °C.
• 1) 10 µL of plasma sample was precipitated by adding 200 µL of acetonitrile, vortex mixed, and centrifuged for 15 minutes. • 2) The processed supernatant was diluted with water and analyzed by LC/MS/MS to determine the concentration of the test compound.
Pharmacokinetic parameters were calculated using WinNonlin 8.3. The pharmacokinetic parameters for mice P.O. are shown in Table 4, and for rats P.O. in Table 5. Cmax represents the maximum plasma concentration, T1/2 represents the terminal elimination half-life, MRTInf represents the mean residence time, and AUC represents the area under the plasma concentration-time curve. Table 4 Pharmacokinetic Parameters of the Compounds of the Present Disclosure in Mice

human CYP11B2 enzyme = target: T2, human CYP11B2 enzyme (Homo sapiens, UniProt P19099); test: Enzyme inhibition activity assay in G402 cells stably expressing human CYP11B2 (aldosterone production from 11-DOC, LC/MS); type: cell-based; details: 1 µM 11-DOC, 16 hours, aldosterone detected
T2 construct: the ORF of human CYP11B1 or CYP11B2 were transfected into G402 cells; expressed in transfected cells
T2 sequence (P19099 25-503): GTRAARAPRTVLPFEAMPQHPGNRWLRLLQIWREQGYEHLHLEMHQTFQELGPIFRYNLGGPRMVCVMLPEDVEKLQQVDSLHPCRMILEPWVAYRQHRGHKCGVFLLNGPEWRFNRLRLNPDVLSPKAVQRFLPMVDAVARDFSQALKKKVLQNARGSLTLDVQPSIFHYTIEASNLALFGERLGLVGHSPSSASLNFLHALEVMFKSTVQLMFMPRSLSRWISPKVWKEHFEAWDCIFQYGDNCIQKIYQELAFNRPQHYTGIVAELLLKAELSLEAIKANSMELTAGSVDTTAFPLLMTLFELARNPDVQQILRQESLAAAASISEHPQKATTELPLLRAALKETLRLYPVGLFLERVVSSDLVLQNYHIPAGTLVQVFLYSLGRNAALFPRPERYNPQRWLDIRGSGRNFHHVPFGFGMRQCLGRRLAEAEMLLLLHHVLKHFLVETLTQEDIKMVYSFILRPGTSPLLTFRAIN
From the text: as §1, §2, §3, §4, §5

plasma hormone levels = test: Pharmacodynamic determination in monkeys: plasma aldosterone and cortisol after ACTH stimulation; type: in vivo, cynomolgus monkeys; details: P.O.
Description: Cynomolgus monkeys were used as test animals to evaluate the pharmacodynamics of multiple compounds of the present disclosure on plasma hormone levels following gavage administration (P.O.) at various doses such as 0.1 mpk (and others, e.g., 0.03 mpk, 0.1 mpk, and 0.3 mpk).
Male cynomolgus monkeys, Suzhou Xishan Zhongke Laboratory Animal Co., Ltd. Animal production license number: SCXK (Su) 2023-0001, animal use license number: SYXK (Su) 2020-0017.
Male cynomolgus monkeys were performed gavage administration (P.O.) at doses set as: 0 mpk (vehicle group, i.e., Veh group), 0.03 mpk, 0.1 mpk, and 0.3 mpk. In each group, 15 µg/kg ACTH was injected intramuscularly 1 hour after dosing. Continuous venous blood samples were collected from each group at 1 hour before administration and at multiple time points after administration. Blood samples were collected, and plasma aldosterone and its precursors, as well as plasma corticosterone and its precursors, at multiple time points were analyzed using LC/MS methods.
Venous blood samples were collected at 1-2 hours before gavage administration and at multiple time points after intramuscular injection of ACTH (adrenocorticotropic hormone). The samples were placed in EDTA-K2 tubes, centrifuged at 4 °C, 2600 g for 10 minutes to separate plasma, which was then stored at -80 °C.
• HPLC: Waters ACQUITY UPLC I-Class PLUS; • Mass spectrometry conditions: Triple Quad™ 7500 (Serial No. FA224362212) mass spectrometer; • Chromatographic column: phenomenex kinetex 2.6µm C8 100A 50 × 4.60 mm; • Mobile phase: mobile phase A was 0.5 mM ammonium fluoride solution containing 0.1% formic acid; mobile phase B was MeOH.
The data in Figs. 1, 2, 3, 4, and 5 are analyzed based on PD changes at 30 minutes after ACTH stimulation. The percentage of PD relative to the control group (Veh group) at 30 minutes after ACTH stimulation serves as the main basis for pharmacodynamic evaluation, calculated according to the following formula: [formula] where PD refers to aldosterone or cortisol. Table 8 Pharmacodynamic Evaluation of Example Compound C44 in Monkeys

in vivo = details: male, Sprague-Dawley, rat, plasma, po, 10 mg/kg
Description: • 1) 50 µL of plasma sample was precipitated by adding 200 µL of acetonitrile, vortex mixed, and centrifuged for 15 minutes. • 2) The processed supernatant was diluted with water and analyzed by LC/MS/MS to determine the concentration of the test compound.
Pharmacokinetic parameters were calculated using WinNonlin 8.3. […] Cmax represents the maximum plasma concentration, T1/2 represents the terminal elimination half-life, MRTInf represents the mean residence time, and AUC represents the area under the plasma concentration-time curve.

[2] = 0.03 mpk, 30min after ACTH stimulation, plasma
[3] = 0.1 mpk, 30min after ACTH stimulation, plasma
[4] = 0.3 mpk, 30min after ACTH stimulation, plasma

| Structure (SMILES) | IC50 (human CYP11B1 enzyme) | Cmax [1] | MRT inf [1] | half-life [1] | AUC(0-t) [1] | IC50 (human CYP11B2 enzyme) | AUC(0-t) (in vivo) | Cmax (in vivo) | Aldosterone (plasma hormone levels; 0.03 mpk, 0h, plasma) | Cortisol (plasma hormone levels; 0.03 mpk, 0h, plasma) | Aldosterone (plasma hormone levels; [2]) | Cortisol (plasma hormone levels; [2]) | Aldosterone (plasma hormone levels; 0.1 mpk, 0h, plasma) | Cortisol (plasma hormone levels; 0.1 mpk, 0h, plasma) | Aldosterone (plasma hormone levels; [3]) | Cortisol (plasma hormone levels; [3]) | Aldosterone (plasma hormone levels; 0.3 mpk, 0h, plasma) | Cortisol (plasma hormone levels; 0.3 mpk, 0h, plasma) | Aldosterone (plasma hormone levels; [4]) | Cortisol (plasma hormone levels; [4]) | also measured |
| --- | --- | --- | --- | --- | --- | --- | --- | --- | --- | --- | --- | --- | --- | --- | --- | --- | --- | --- | --- | --- | --- |
| CCC(=O)N[C@@H]1CCOc2c(-c3ccc4c(ccc(=O)n4C)c3)cncc21 [Compound A09] | 3380 nM and 18800 nM |  |  |  |  | 8.2 nM and 13.8 nM | 522 µM·h | 52.1 µM | 0.20 ng/mL | 214.0 ng/mL | 0.34 ng/mL | 285.3 ng/mL | 0.24 ng/mL | 256.7 ng/mL | 012 ng/mL | 345.0 ng/mL | 0.08 ng/mL | 286.7 ng/mL | 0.07 ng/mL | 388.3 ng/mL | MRT inf (in vivo): 8.19 h; half-life (in vivo): 5.91 h |
| CCC(=O)N[C@@H]1CCCc2c(-c3cc(F)c4c(c3)COC(=O)N4C)cncc21 [Compound C44] |  | 53.1 µM | 4.78 h | 2.28 h | 421 µM·h | 187 nM |  |  | 0.07 ng/mL | 279.5 ng/mL | 0.28 ng/mL | 384.0 ng/mL | 0.24 ng/mL | 455.0 ng/mL | 0.20 ng/mL | 538.5 ng/mL | 0.07 ng/mL | 265.5 ng/mL | 0.07 ng/mL | 396.0 ng/mL |  |

Continued by falling IC50 (human CYP11B2 enzyme), values first:

| IC50 (human CYP11B1 enzyme) | Cmax [1] | MRT inf [1] | half-life [1] | AUC(0-t) [1] | IC50 (human CYP11B2 enzyme) | AUC(0-t) (in vivo) | Cmax (in vivo) | Structure (SMILES) | Aldosterone (plasma hormone levels; 0.03 mpk, 0h, plasma) | Cortisol (plasma hormone levels; 0.03 mpk, 0h, plasma) | Aldosterone (plasma hormone levels; [2]) | Cortisol (plasma hormone levels; [2]) | Aldosterone (plasma hormone levels; 0.1 mpk, 0h, plasma) | Cortisol (plasma hormone levels; 0.1 mpk, 0h, plasma) | Aldosterone (plasma hormone levels; [3]) | Cortisol (plasma hormone levels; [3]) | Aldosterone (plasma hormone levels; 0.3 mpk, 0h, plasma) | Cortisol (plasma hormone levels; 0.3 mpk, 0h, plasma) | Aldosterone (plasma hormone levels; [4]) | Cortisol (plasma hormone levels; [4]) | also measured |
| --- | --- | --- | --- | --- | --- | --- | --- | --- | --- | --- | --- | --- | --- | --- | --- | --- | --- | --- | --- | --- | --- |
| 7220 nM |  |  |  |  | 16.7 nM | 345 µM·h | 47.9 µM | CCC(=O)N[C@@H]1CCCc2c(-c3cc(C)c4c(ccc(=O)n4C)c3)cncc21 [Compound C43] | 0.16 ng/mL |  | 0.26 ng/mL |  | 0.16 ng/mL |  | 0.15 ng/mL |  | 0.20 ng/mL |  | 0.14 ng/mL |  | Cortisol (plasma hormone levels; 0.03 mpk, 0h, plasma (Table 11)): 268.3 ng/mL; Cortisol (plasma hormone levels; 0.03 mpk, 30min after ACTH stimulation, plasma (Table 11)): 358.7 ng/mL; Cortisol (plasma hormone levels; 0.1 mpk, 0h, plasma (Table 11)): 282.0 ng/mL; Cortisol (plasma hormone levels; 0.1 mpk, 30min after ACTH stimulation, plasma (Table 11)): 386.0 ng/mL; Cortisol (plasma hormone levels; 0.3 mpk, 0h, plasma (Table 11)): 276.0 ng/mL; Cortisol (plasma hormone levels; 0.3 mpk, 30min after ACTH stimulation, plasma (Table 11)): 346.7 ng/mL; MRT inf (in vivo): 6.24 h; half-life (in vivo): 4.77 h |
| 1150 nM | 30.2 µM | 4.36 h | 2.54 h | 223 µM·h | 13.2 nM |  |  | CCC(=O)N[C@@H]1CCCc2c(-c3ccc4c(c3)COC(=O)N4C)cncc21 [Compound C07] |  |  |  |  |  |  |  |  |  |  |  |  |  |
| 4900 nM | 25 µM | 5.07 h | 2.83 h | 209 µM·h | 11.1 nM |  |  | CCC(=O)N[C@@H]1CCCc2c(-c3cc(F)c4c(ccc(=O)n4C)c3)cncc21 [Compound C41] |  |  |  |  |  |  |  |  |  |  |  |  |  |
